Assay results published in US10383871B2, “Azetidine derivatives” (Vernalis (R&D) Ltd, priority 2008, dated 2019).

assay: Plasma concentrations after oral administration in laboratory rats; format: in vivo, rat

SMILES	plasma concentrations after oral administration
O=C(Nc1cccnc1)N1CC(Oc2ccc(-c3ccccc3)cc2)C1 [Example 4, 3-(Biphenyl-4-yloxy)-azetidine-1-carboxylic acid pyridin-3-ylamide]	high and prolonged plasma concentrations
COCCOc1cccc(-c2ccc(OC3CN(C(=O)Nc4cccnn4)C3)nc2)c1 [Example 7, 3-{5-[3-(2-Methoxy-ethoxy)-phenyl]-pyridin-2-yloxy}-azetidine-1-carboxylic acid pyridazin-3-ylamide]	high and prolonged plasma concentrations
O=C(Nc1cccnn1)N1CC(Oc2ccc(-c3ccccc3)cn2)C1 [Example 13, 3-(5-Phenyl-pyridin-2-yloxy)-azetidine-1-carboxylic acid pyridazin-3-ylamide]	high and prolonged plasma concentrations
COc1ccccc1-c1ccc(OC2CN(C(=O)Nc3cccnn3)C2)nc1 [Example 17, 3-[5-(2-Methoxy-phenyl)-pyridin-2-yloxy]-azetidine-1-carboxylic acid pyridazin-3-ylamine]	high and prolonged plasma concentrations
O=C(Nc1cccnn1)N1CC(Oc2ccc(-c3ccccc3F)cn2)C1 [Example 18, 3-[5-(2-Fluoro-phenyl)-pyridin-2-yloxy]-azetidine-1-carboxylic acid pyridazin-3-ylamide]	high and prolonged plasma concentrations
